Results on 4 molecules are retold here after US5397781A, “Pyrimidine derivatives” (Mochida Pharmaceutical Company, Limited, priority 1992, dated 1995).

Series [1] deals with serum total cholesterol. Kind of series: Hypocholesterolemic effect on cholesterol feeding rats. As to conditions: Rattus norvegicus, oral, high cholesterol diet rats, read-out: % reduction of serum total cholesterol; for inhibition in vivo at 10 mg/kg: 10 mg/kg/day. It is filed as in vivo, male Wistar rats. Here is the method: Hypocholesterolemic effect on cholesterol feeding rats. Male Wistar rats aged 7 weeks old were fed a diet (CE®) supplemented with 2%(w/w) cholesterol, 0.5%(w/w) sodium cholate, 10%(w/w) lard, 0.2%(w/w) propylthiouracyl and 5%(w/w) sucrose, for 3 days. Following 3 days, the compounds of the present invention were administered orally, and the animals were maintained with the high cholesterol diet. On the next day of final drug administration, blood was drown and serum total cholesterol-levels were measured enzymatically by autoanalyzer. CL277082 was used as a reference compound.

For series [2], the target named is T1, ACAT (Rattus norvegicus, UniProt Q7TQM4).
T1 construct: Liver microsomes as an enzyme sample of ACAT were prepared from overnight-fasted male rats; from tissue; host or cells: liver of overnight-fasted male rats, 6 weeks old; microsomes
T1 sequence (Q7TQM4 1-524): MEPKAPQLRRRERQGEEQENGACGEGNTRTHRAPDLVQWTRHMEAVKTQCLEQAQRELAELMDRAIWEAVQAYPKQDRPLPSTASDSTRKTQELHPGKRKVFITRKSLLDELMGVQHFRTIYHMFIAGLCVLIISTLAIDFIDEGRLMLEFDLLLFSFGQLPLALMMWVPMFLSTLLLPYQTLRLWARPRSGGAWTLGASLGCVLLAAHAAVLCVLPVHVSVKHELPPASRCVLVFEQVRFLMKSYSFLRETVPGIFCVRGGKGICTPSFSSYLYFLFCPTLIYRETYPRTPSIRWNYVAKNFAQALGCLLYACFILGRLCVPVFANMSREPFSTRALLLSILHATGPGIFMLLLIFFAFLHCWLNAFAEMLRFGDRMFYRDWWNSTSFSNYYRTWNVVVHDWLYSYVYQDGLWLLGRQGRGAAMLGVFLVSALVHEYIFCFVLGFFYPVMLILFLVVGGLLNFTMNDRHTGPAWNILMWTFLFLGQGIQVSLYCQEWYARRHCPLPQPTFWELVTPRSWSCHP
Kind of series: Inhibitory effect on microsomal ACAT activity in rat liver. Format: biochemical. As to conditions: rat liver microsomes; read-out: IC50 (50% inhibition of cholesterol esterification).

For series [3], the system named is male Wistar rats. Kind of series: Acute toxicity. Format: in vivo. Conditions: 7 days observation. The source says: The pyrimidine derivatives of the present invention were examined for acute toxicity by using male Wistar rats fasted over night aged 7 weeks old.
In series [4] the test system is macrophages. In words: Inhibitory effect on cholesteryl ester accumulation in macrophages. It is filed as cell-based, mouse (ddy-family male mice). Conditions: Macrophage; mouse peritoneal macrophages, β-VLDL, [3H]oleic acid, 3 hrs; read-out: Inhibition activity on cholesteryl ester accumulation (IC50 grade). As for the experimental part:
Inhibitory effect on cholesteryl ester accumulation in macrophages.
Namely resident peritoneal cells suspended in phosphate-buffered saline (PBS) were plated in plastic Petri dishes (35 mm×10 mm) at a density of 2×10^6 cells. The adherent macrophages were cultured overnight at 37° C. in Dalbecco's modified Eagle medium (DME) containing 10% fetal bovine serum (FCS) under humidified 5% CO2. […] After discarding the medium, each macrophage monolayer was washed with PBS and lipids were extracted with hexane/isopropyl alcohol (3:2). Cholesteryl esters in the extract were separated by thin-layer chromatography and the radioactivity was measured by liquid scintillation counter.

Take `CCCCCCN(CCCC(=O)Nc1c(S)nc(C)nc1N(CC)CC)c1ccccc1` [Example 155, N-[4-(N,N-diethylamino)-6-mercapto-2-methylpyrimidin-5-yl]-4-(N-hexyl-N-phenylamino)butanamide]: the inhibition in vivo at 10 mg/kg in series [1] was determined as 66%. For the same molecule, the IC50 in series [2] is 88 nM. In addition, the “lethal incident (acute toxicity)” value in series [3] (single oral dose 1 g/kg) is recorded as “no lethal incident was observed”.

On to `CCCN(CCCC(=O)Nc1c(S)nc(C)nc1N(CCC)c1ccccc1)c1ccccc1` [Example 143, N-[4-mercapto-2-methyl-6-(N-phenyl-N-propylamino)pyrimidin-5-yl]-4-(N-phenyl-N-propylamino)butanamide], for which the results for the IC50 in series [4] and in series [2] were 1000 to 10000 nM and 80 nM, respectively. The inhibition in vivo at 30 mg/kg in series [1] (30 mg/kg/day) is 20%. Moreover, the “lethal incident (acute toxicity)” value in series [3] (single oral dose 2 g/kg) is listed as “no lethal incident was observed”.

Take `CCCCN(CCCC)c1nc(C)nc(SC)c1NC(=O)CCCCN(CCC)c1ccccc1` [Example 247, N-[4-(N,N-dibutylamino)-2-methyl-6-methylthiopyrimidin-5-yl]-5-(N-phenyl-N-propylamino)pentanamide]: the IC50 in series [4] was 10 to 100 nM; in series [2], 16 nM. The inhibition in vivo at 10 mg/kg in series [1] amounted to 76%. Moreover, the “lethal incident (acute toxicity)” value in series [3] (single oral dose 1 g/kg) is reported as “no lethal incident was observed”.

Turning to `CCCCCCN(CCCC(=O)Nc1c(SCC)nc(C)nc1N(CC)CC)c1ccccc1` [Example 260, N-[4-(N,N-dietylamino)-6-ethylthio-2-methylpyrimidin-5-yl]-4-(N-hexyl-N-phenylamino)butanamide], the inhibition in vivo at 10 mg/kg in series [1] is 70%. The “lethal incident (acute toxicity)” value in series [3] (single oral dose 1 g/kg) is “no lethal incident was observed”.
